In one test the target is T1, GluClαP192M/βWT receptor (Caenorhabditis elegans, UniProt G5EBR3+Q17328, P192M).
T1 construct: entry codes of the full-length subunits used in this study; expressed in transfected cells; host or cells: CHO cells, transient co-transfection 1:1, pcDNA3.1
In words: Whole-cell patch clamp in CHO cells, GluClαP192M/βWT receptor. Type of test: cell-based. As to conditions: +60 mV. As for the experimental part:
(§1) Chinese hamster ovary (CHO) cells were cultured as previously (Bar-Lev et al., [2011]) in Dulbecco’s Modified Eagle Medium (DMEM) containing 10% fetal calf serum, 2 mM glutamax, 100 Units/ml penicillin G and 100 μg/ml streptomycin, and grown in 5% CO2 at 37°C under 90%–95% humidity. The cells were seeded on glass coverslips (13-mm diameter) placed in a 24-multiwell plate. […] For the expression of GluCl receptors, cells were transiently co-transfected with pcDNA3.1 plasmids containing the ORFs of interest using transit-LT1 transfection reagent (Mirus, Madison, WI, USA), according to the manufacturer’s protocol. The cDNAs encoding the C. elegans GluClα (GLC-1) or its mutated versions and the GluClβ (GLC-2) subunits (200–600 ng per well) were used at 1:1 ratio. The pIRES-CD8 plasmid (200 ng per well) was added to enable the visualization of the expressing cells by beads coated with anti-CD8 antibodies (Invitrogen). […]
(§2) Whole-cell patch clamp recordings were performed as described previously (Bar-Lev et al., [2011]) in CHO cells that were prepared as detailed above. […] The currents were measured with an Axopatch 200B patch-clamp amplifier (Molecular Devices, Sunnyvale, CA, USA) and a Digidata 1440A interface (Molecular Devices). […]
Background: In patch-clamp work, channel activity is measured electrically.

The next test has as its target T2, GluClαY194R/βWT receptor (Caenorhabditis elegans, UniProt G5EBR3+Q17328, Y194R).
T2 construct: entry codes of the full-length subunits used in this study; expressed in transfected cells; host or cells: CHO cells, transient co-transfection 1:1, pcDNA3.1
As to the kind of experiment: Whole-cell patch clamp in CHO cells, GluClαY194R/βWT receptor. It counts as cell-based. As to conditions: +60 mV. On the procedure:
as §1, §2

The next test deals with T3, GluClαE273R/βWT receptor (Caenorhabditis elegans, UniProt G5EBR3+Q17328, E273R).
T3 construct: entry codes of the full-length subunits used in this study; expressed in transfected cells; host or cells: CHO cells, transient co-transfection 1:1, pcDNA3.1
T3 sequence (G5EBR3 21-461 E273R, one chain of several): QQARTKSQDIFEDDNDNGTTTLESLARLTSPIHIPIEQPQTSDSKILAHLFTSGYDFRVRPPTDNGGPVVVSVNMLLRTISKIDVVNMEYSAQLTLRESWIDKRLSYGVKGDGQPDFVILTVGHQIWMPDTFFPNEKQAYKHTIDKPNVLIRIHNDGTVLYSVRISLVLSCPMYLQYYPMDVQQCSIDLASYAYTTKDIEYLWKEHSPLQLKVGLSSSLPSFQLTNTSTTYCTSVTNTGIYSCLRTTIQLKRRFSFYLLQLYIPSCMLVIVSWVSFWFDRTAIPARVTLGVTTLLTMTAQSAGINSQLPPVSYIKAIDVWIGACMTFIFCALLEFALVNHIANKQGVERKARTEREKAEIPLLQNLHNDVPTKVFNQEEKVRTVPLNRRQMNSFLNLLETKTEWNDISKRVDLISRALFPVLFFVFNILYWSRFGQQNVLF
In words: Whole-cell patch clamp in CHO cells, GluClαE273R/βWT receptor. It counts as cell-based. As to conditions: +60 mV. As for the experimental part: as §1, §2

The target of test [1] is T4, GluClαWT/βWT receptor (Caenorhabditis elegans, UniProt G5EBR3+Q17328).
T4 construct: entry codes of the full-length subunits used in this study; expressed in transfected cells; host or cells: CHO cells, transient co-transfection 1:1, pcDNA3.1
T4 sequence (G5EBR3 21-461): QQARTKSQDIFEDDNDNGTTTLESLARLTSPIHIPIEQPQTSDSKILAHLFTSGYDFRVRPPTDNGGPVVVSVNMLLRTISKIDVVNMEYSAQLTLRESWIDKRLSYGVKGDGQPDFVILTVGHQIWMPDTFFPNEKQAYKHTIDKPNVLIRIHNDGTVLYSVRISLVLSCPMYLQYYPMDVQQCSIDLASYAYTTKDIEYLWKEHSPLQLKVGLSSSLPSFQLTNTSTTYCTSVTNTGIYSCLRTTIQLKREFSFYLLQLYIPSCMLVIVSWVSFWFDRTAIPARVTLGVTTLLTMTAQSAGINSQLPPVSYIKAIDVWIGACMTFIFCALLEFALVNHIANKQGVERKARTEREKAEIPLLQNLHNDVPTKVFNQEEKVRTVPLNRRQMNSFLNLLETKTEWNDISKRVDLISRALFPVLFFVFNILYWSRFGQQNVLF
T4 sequence (Q17328 23-434): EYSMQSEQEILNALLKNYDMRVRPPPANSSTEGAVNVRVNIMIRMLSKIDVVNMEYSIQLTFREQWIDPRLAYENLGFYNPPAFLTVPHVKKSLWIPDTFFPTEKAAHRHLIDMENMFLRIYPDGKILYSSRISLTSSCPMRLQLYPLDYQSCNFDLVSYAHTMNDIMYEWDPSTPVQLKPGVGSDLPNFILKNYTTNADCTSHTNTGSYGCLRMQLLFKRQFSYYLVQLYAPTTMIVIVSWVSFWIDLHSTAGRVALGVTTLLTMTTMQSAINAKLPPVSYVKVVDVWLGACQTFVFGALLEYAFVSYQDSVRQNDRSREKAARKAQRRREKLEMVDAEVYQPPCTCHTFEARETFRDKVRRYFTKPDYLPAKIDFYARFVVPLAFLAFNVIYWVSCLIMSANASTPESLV
In words: Whole-cell patch clamp in CHO cells, GluClαWT/βWT receptor. Type of test: cell-based. On the procedure: (§3) Chinese hamster ovary (CHO) cells were cultured as previously (Bar-Lev et al., [2011]) in Dulbecco’s Modified Eagle Medium (DMEM) containing 10% fetal calf serum, 2 mM glutamax, 100 Units/ml penicillin G and 100 μg/ml streptomycin, and grown in 5% CO2 at 37°C under 90%–95% humidity. The cells were seeded on glass coverslips (13-mm diameter) placed in a 24-multiwell plate. […] For the expression of GluCl receptors, cells were transiently co-transfected with pcDNA3.1 plasmids containing the ORFs of interest using transit-LT1 transfection reagent (Mirus, Madison, WI, USA), according to the manufacturer’s protocol. The cDNAs encoding the C. elegans GluClα (GLC-1) or its mutated versions and the GluClβ (GLC-2) subunits (200–600 ng per well) were used at 1:1 ratio. The pIRES-CD8 plasmid (200 ng per well) was added to enable the visualization of the expressing cells by beads coated with anti-CD8 antibodies (Invitrogen). For high-level expression of the GluClαF276A/βWT mutant receptor in experiments assigned to determine its IVM-EC50, we used the X-tremeGENE HP DNA Transfection Reagent (Roche Life Science). Recordings were performed 72–96 h following the transfection.
(§4) Whole-cell patch clamp recordings were performed as described previously (Bar-Lev et al., [2011]) in CHO cells that were prepared as detailed above. The normal external solution (NES) contained (in millimolar): 140 NaCl, 2.8 KCl, 2 CaCl2, 2 MgCl2, 10 glucose and 10 HEPES, adjusted to pH 7.35 with NaOH (310 mOsm/L). The pipette solution contained (in millimolar): 130 KCl, 4 MgCl2, 4 Na2ATP, 1 EGTA and 10 HEPES, adjusted to pH 7.35 with KOH (290 mOsm/L). The osmolarity of these solutions was maintained by adding sucrose. The electrode resistance was 6–10 MΩ when filled with the pipette solution. External solutions were applied onto the cell by using the VC-77SP fast-step system (Warner Instruments, Hamden, CT, USA) combined with N2 pressure of 3–4 psi to produce laminar flow of the external solution onto the patched cell. All measurements were performed at room temperature. The currents were measured with an Axopatch 200B patch-clamp amplifier (Molecular Devices, Sunnyvale, CA, USA) and a Digidata 1440A interface (Molecular Devices). Acquisition of recording data was performed at 2.5 kHz and recordings were low-pass filtered at 1 kHz, through a four-pole Bessel filter. The pClamp 10 software (Molecular Devices) was used for data acquisition. […] Five-hundred milliseconds after the application started (which is also after the current reached to its peak at −60 mV), the voltage was stepped from −60 mV to −80 mV for 50 ms followed by a 250-ms-long voltage ramp ranging from −80 mV to +80 mV.
(§5) Dose-response curves were fitted to the data points by a nonlinear regression using the Hill Equation 1,

In test [2] the target is T5, GluClαWT (GLC-1) homomeric receptor (Caenorhabditis elegans, UniProt G5EBR3).
T5 construct: entry codes of the full-length subunits used in this study; expressed in transfected cells; host or cells: CHO cells, transient transfection, pcDNA3.1
T5 sequence (G5EBR3 21-461): T4 sequence (G5EBR3 21-461)
On the set-up: method as in Degani-Katzav et al., [2016]. As to conditions: CHO cells, αWT alone; ref Degani-Katzav et al., [2016]; cited from earlier work.

Test [3] has as its target T6, GluClα[SSS→GSD]/βWT receptor (Caenorhabditis elegans, UniProt G5EBR3+Q17328, S236G/S238D).
T6 construct: entry codes of the full-length subunits used in this study; expressed in transfected cells; host or cells: CHO cells, transient co-transfection 1:1, pcDNA3.1
As to the kind of experiment: Whole-cell patch clamp in CHO cells, GluClα[SSS→GSD]/βWT receptor. Type of test: cell-based. As to conditions: +60 mV. As for the experimental part:
as §1, §2

The target of another test is T7, GluClαF276W/βWT receptor (Caenorhabditis elegans, UniProt G5EBR3+Q17328, F276W).
T7 construct: entry codes of the full-length subunits used in this study; expressed in transfected cells; host or cells: CHO cells, transient co-transfection 1:1, pcDNA3.1
T7 sequence (G5EBR3 21-461 F276W, one chain of several): as the sequence (G5EBR3 21-461 E273R, one chain of several) above, with R253E, F256W counted along it
In words: Whole-cell patch clamp in CHO cells, GluClαF276W/βWT receptor. Type of test: cell-based. As to conditions: +60 mV. As for the experimental part: as §1, §2

A further test addresses T8, GluClαP192Y/βWT receptor (Caenorhabditis elegans, UniProt G5EBR3+Q17328, P192Y).
T8 construct: entry codes of the full-length subunits used in this study; expressed in transfected cells; host or cells: CHO cells, transient co-transfection 1:1, pcDNA3.1
As to the kind of experiment: Whole-cell patch clamp in CHO cells, GluClαP192Y/βWT receptor. It counts as cell-based. As to conditions: +60 mV. As for the experimental part:
as §1, §2

The target in test [4] is T9, GluClβWT (GLC-2) homomeric receptor (Caenorhabditis elegans, UniProt Q17328).
T9 construct: entry codes of the full-length subunits used in this study; expressed in transfected cells; host or cells: CHO cells, transient transfection, pcDNA3.1
T9 sequence (Q17328 23-434): T4 sequence (Q17328 23-434)
As to conditions: CHO cells, βWT alone, ref Degani-Katzav et al., cited from earlier work.

A further test addresses T10, GluClαP192E/βWT receptor (Caenorhabditis elegans, UniProt G5EBR3+Q17328, P192E).
T10 construct: entry codes of the full-length subunits used in this study; expressed in transfected cells; host or cells: CHO cells, transient co-transfection 1:1, pcDNA3.1
As to the kind of experiment: Whole-cell patch clamp in CHO cells, GluClαP192E/βWT receptor. Type of test: cell-based. As to conditions: +60 mV. As for the experimental part: as §1, §2

Test [5] addresses T4, GluClαWT/βWT receptor. The arrangement: method as in Degani-Katzav et al., [2016]. As to conditions: CHO cells co-transfected with WT α and β subunits; ref Degani-Katzav et al., [2016]; cited from earlier work.
Another test has as its target T11, GluClαF276A/βWT receptor (Caenorhabditis elegans, UniProt G5EBR3+Q17328, F276A).
T11 construct: entry codes of the full-length subunits used in this study; expressed in transfected cells; host or cells: CHO cells, transient co-transfection, pcDNA3.1 (X-tremeGENE HP for the IVM-EC50 experiments)
As to the kind of experiment: Whole-cell patch clamp in CHO cells, GluClαF276A/βWT receptor. It counts as cell-based. On the procedure:
as §3, §4, §5

SMILES strings stand for the structures.

T11 sequence (G5EBR3 21-461 F276A, one chain of several): as the sequence (G5EBR3 21-461 E273R, one chain of several) above, with R253E, F256A counted along it
T8 sequence (G5EBR3 21-461 P192Y, one chain of several): as the sequence (G5EBR3 21-461 E273R, one chain of several) above, with P172Y, R253E counted along it
T2 sequence (G5EBR3 21-461 Y194R, one chain of several): as the sequence (G5EBR3 21-461 E273R, one chain of several) above, with Y174R, R253E counted along it
T1 sequence (G5EBR3 21-461 P192M, one chain of several): as the sequence (G5EBR3 21-461 E273R, one chain of several) above, with P172M, R253E counted along it
T6 sequence (G5EBR3 21-461 S236G/S238D, one chain of several): as the sequence (G5EBR3 21-461 E273R, one chain of several) above, with S216G, S218D, R253E counted along it
T10 sequence (G5EBR3 21-461 P192E, one chain of several): as the sequence (G5EBR3 21-461 E273R, one chain of several) above, with P172E, R253E counted along it

Regarding `N[C@@H](CCC(=O)O)C(=O)O` [Glu, glutamate], the “Glu activation properties nH (Hill coefficient)” value on GluClαP192M/βWT receptor is listed as 1.6 ± 0.1; on GluClαY194R/βWT receptor it was 1.5 ± 0.1; on GluClαE273R/βWT receptor it was 1.5 ± 0.1; on GluClαWT/βWT receptor [1] (CHO cells, +60 mV), 1.6 ± 0.1; in test [3] it was 1.3 ± 0.1; at GluClαF276W/βWT receptor, 1.5 ± 0.1. Also, the “Glu activation properties nH (Hill coefficient)” value on GluClαP192Y/βWT receptor is given as 1.5 ± 0.1; at GluClαP192E/βWT receptor it was 1.5 ± 0.1; on GluClαF276A/βWT receptor (CHO cells, +60 mV), 1.3 ± 0.1. Besides, the receptor population activated at GluClαWT/βWT receptor [1] (0.3 mM Glu, calculated from the Glu dose-response curve) is on record as ~ 7%; at GluClαF276A/βWT receptor (1 mM Glu), ~ 5%. Moreover, the results for the “Hill coefficient of activation by Glu after pre-exposure to IVM” value on GluClαWT/βWT receptor [1] (pre-exposure to 7 nM IVM) and on GluClαF276A/βWT receptor (pre-exposure to 50 nM IVM) were 1.2 ± 0.07 and 1.5 ± 0.03, respectively. Moreover, the “response to 10 mM Glu” value in test [2] is on record as “very weak responses”; in test [4] ([2016]), “very weak, rare responses”. In test [4] (X-tremeGENE HP transfection, [2017]), the “cells responding to 100 mM Glu” value is 4 of 46. Further, the “response to Glu” value at GluClαWT/βWT receptor [5] was “robust responses”.

The record behind these values is PMC5382172 (Frontiers in Molecular Neuroscience, 2017).
